The text below walks through data of publication PMC4586513, “Mitochondrial ADP/ATP exchange inhibition: a novel off-target mechanism underlying ibipinabant-induced myotoxicity” (Scientific Reports, 2015).

The test addresses T1, adenine nucleotide translocase 1 (ANT1) (Bos taurus, UniProt P02722).
T1 construct: gene SLC25A4; native ANT in isolated bovine heart mitochondria
T1 sequence (P02722 2-298): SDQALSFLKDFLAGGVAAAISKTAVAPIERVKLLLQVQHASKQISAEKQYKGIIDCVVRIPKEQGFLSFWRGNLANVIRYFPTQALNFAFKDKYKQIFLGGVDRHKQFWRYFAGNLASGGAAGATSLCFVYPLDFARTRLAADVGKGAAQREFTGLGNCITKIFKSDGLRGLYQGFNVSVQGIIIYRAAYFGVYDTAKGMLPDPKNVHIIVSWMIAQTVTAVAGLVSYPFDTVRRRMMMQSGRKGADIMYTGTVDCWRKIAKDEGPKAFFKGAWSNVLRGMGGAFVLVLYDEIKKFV
The experiment in a line: […]ADP uptake in isolated bovine heart mitochondria with […] atractyloside; import decreased to […]. The class given is cell-based.

As for `C=C1[C@@H]2CC[C@H]3[C@]4(C)C[C@H](O[C@@H]5O[C@H](CO)[C@@H](OS(=O)(=O)O)[C@H](OS(=O)(=O)O)[C@H]5OC(=O)CC(C)C)C[C@@H](C(=O)O)[C@H]4CC[C@]3(C2)[C@H]1O` [atractyloside], the remaining activity at 50 µM turned out to be 13.8 ± 1.1%.
